Assays:
[1] = system: NSCLC; details: erlotinib plus carboplatin and paclitaxel; cited from earlier work
[2] = system: first-line NSCLC patients; details: erlotinib 150 mg/day plus gemcitabine and cisplatin compared with gemcitabine and cisplatin alone; cited from earlier work
[3] = system: non-small-cell lung cancer (NSCLC); assay: Clinical study BO16411: Tarceva plus gemcitabine/cisplatin versus placebo plus gemcitabine/cisplatin, with pMAPK/pAKT IHC biomarker subset; type: in vivo, human
Procedure: Biomarker analyses were performed on a sample subset of 141 patients, for which formalin-fixed paraffin embedded (FFPE) tissue blocks from initial diagnosis had been received.
One pathologist evaluated all immunostainings. The nuclear staining intensity (pAKT, pMAPK) was estimated by visual inspection in a four step scale (0, 1, 2, 3). In addition to nuclear staining intensity, the percentage of positive cells, and the reason for analysis failure (i.e. lack of tumor cells in the tissue spot or lack of the tissue spot on the TMA slide) was recorded. Exploratory Statistical Analysis:
The basic statistics and interdependencies of the different markers were descriptively investigated. Methodological analyses comparing different measurement approaches, e.g. for IHC, were performed with regard to reliability and validity.
The p-values emerging from these analyses are not to be interpreted in a confirmative sense; they are to be seen as a special descriptive tool in order to guide the exploration towards an efficient candidate prediction rule. Markers were evaluated on a univariate level regarding their potential for prediction (e.g. search for cut-offs) of the clinical endpoints. Further multivariate techniques (e.g. Linear Discriminant Analysis, Multiple Logistic Regression, Principal Component Analysis with Rotation, Cluster Analysis, CART methodology) were employed in order to study combinations of markers. Biomarker and response correlations with clinical covariates were investigated. Candidate groupings derived from biomarkers were checked with time to event variables (Kaplan-Meier curves, Cox proportional hazard model, logrank test).
The patient subset with samples for biomarker analysis was compared to the overall study population regarding baseline patient characteristics and clinical outcome parameters.
For determining correlation between pMAPK expression and clincal outcome, cut-off values were established by descriptive statistical analysis: Franklin H-score was determined by combining staining intensity and percentage of stained tumor cells (pMAPK_hsco=(pMAPK_Nuclear_Staining+1)*pMAPK_Nuclear_Pos_Cells; range: 0-400). “Positive” pMAPK staining was defined by H-scores of =/>100, else the staining was “negative”.
“Positive” pAKT staining was defined by H-scores of =/>300, else the staining was “negative”.

[4] = system: non-small-cell lung cancer (NSCLC); details: single-agent erlotinib, second- or third-line therapy; placebo 4.7 months; statistically significant improvement; cited from earlier work

For C#Cc1cccc(Nc2ncnc3cc(OCCOC)c(OCCOC)cc23)c1 [Tarceva®, N-(3-ethynylphenyl)-6,7-bis(2-methoxyethoxy) quinazolin-4-amine], the “Outcome compared with TALENT (no benefit of adding erlotinib)” value [1] is given as “Identical results”, the “Benefit on primary (survival duration) and secondary endpoints” value [2] is given as “no demonstrable benefit” and the “HR, benefit from chemotherapy/Tarceva combo” value ([3]; "Positive pMAPK" patients (H-score =/>100), p: 0.0516) is given as 0.500. The “Hazard Ratio, time to progression/death” value ([3]; COX model without covariates, pAKT1 data set, trtgr only) was 1.269, the “Hazard Ratio, time to progression/death” value ([3]; COX model without covariates, pMAPK data set, trtgr only) was 1.320 and the “Hazard Ratio, time to progression/death” value ([3]; COX model, trtgr in patients with pAKT1 H-Score ≧ 300) was 1.262. The “Hazard Ratio, time to progression/death” value ([3]; COX model, trtgr in patients with pMAPK H-Score < 100) was 1.634, the “Hazard Ratio, time to progression/death” value ([3]; COX model, trtgr in patients with pMAPK H-Score ≧ 100) was 0.773 and the “Responders (%)” value ([3]; Main clinical population, Tarceva + gemcitabine/cisplatin arm (N = 396)) was 42.4%. The “Responders (%)” value ([3]; Patient subset with IHC/FISH biomarker data, Tarceva + gemcitabine/cisplatin arm (N = 46)) was 43.5% and the Survival [4] was 6.7 months.

Reference: patent US7655414B2, “Determination of responders to chemotherapy” (Hoffman La-Roche Inc., priority 2005, dated 2010)
